ChEMBL document CHEMBL1201862, “PubChem BioAssay data set” (2004)
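A five-concentration, 48-hour dose response in 96-well plates underlies each endpoint, interpolated linearly between surrounding concentrations. Here, GI50 denotes the concentration required for 50% inhibition of growth.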 Activity calls are given as the source filed them. Rule as the data show it: active = GI50 up to about 1.1 µM and inactive = higher.

Experiments:
Assay in all cases: NCI tumour cell line growth inhibition, 48 h
786-0 = tested on: 786-0
A549 = tested on: A549
DU-145 = tested on: DU-145
HOP-92 = tested on: HOP-92
Hs-578T = tested on: Hs-578T
M14 = tested on: M14
MDA-N = tested on: MDA-N
NCI-H460 = tested on: NCI-H460
OVCAR-4 = tested on: OVCAR-4
OVCAR-5 = tested on: OVCAR-5
RPMI-8226 = tested on: RPMI-8226
SK-MEL-28 = tested on: SK-MEL-28
SK-OV-3 = tested on: SK-OV-3
SNB-19 = tested on: SNB-19
SR = tested on: SR
T47D = tested on: T47D
MDA-MB-435 = tested on: MDA-MB-435
OVCAR-3 = tested on: OVCAR-3
UACC-62 = tested on: UACC-62

SMILES	GI50 (786-0)	GI50 (A549)	GI50 (DU-145)	GI50 (HOP-92)	GI50 (Hs-578T)	GI50 (M14)	GI50 (MDA-N)	GI50 (NCI-H460)	GI50 (OVCAR-4)	GI50 (OVCAR-5)	GI50 (RPMI-8226)	GI50 (SK-MEL-28)	GI50 (SK-OV-3)	GI50 (SNB-19)	GI50 (SR)	GI50 (T47D)	GI50 (MDA-MB-435)	GI50 (OVCAR-3)	GI50 (UACC-62)
COc1cc(/C=C/c2ccc(O)c(OC)c2)cc(OC)c1	45.5 µM (inactive)	25.6 µM (inactive)	23.1 µM (inactive)	12.3 µM (inactive)	14.2 µM (inactive)	21 µM (inactive)	17.4 µM (inactive)	19 µM (inactive)	41.8 µM (inactive)	31.6 µM (inactive)	30.3 µM (inactive)	33.1 µM (inactive)	26.9 µM (inactive)	36.4 µM (inactive)	25.8 µM (inactive)	33.9 µM (inactive)			
Cc1ccc(-n2cc(-c3ccc(Cl)cc3)c3c2N=CN2N=C(c4cccs4)NC32)cc1 (configuration not stated)	4.28 µM (inactive)	21.9 µM (inactive)	> 100 µM (inactive)	7.64 µM (inactive)	2.07 µM (inactive)	18.7 µM (inactive)	26.8 µM (inactive)	5.31 µM (inactive)	2.21 µM (inactive)	11.1 µM (inactive)		> 100 µM (inactive)	14.9 µM (inactive)	17.9 µM (inactive)	7.64 µM (inactive)		38.7 µM (inactive)	9.73 µM (inactive)	23.2 µM (inactive)
N=C(N)N/N=C/c1c(-c2ccc(Cl)cc2)nc2sc(Cl)cn12	1.58 µM (inactive)	1.7 µM (inactive)	1.95 µM (inactive)	1.69 µM (inactive)	1.85 µM (inactive)	1.9 µM (inactive)	1.72 µM (inactive)	1.69 µM (inactive)	1.02 µM (active)	1.67 µM (inactive)		1.81 µM (inactive)	1.93 µM (inactive)	1.86 µM (inactive)		1.12 µM (inactive)	1.3 µM (inactive)	1.55 µM (inactive)	1.78 µM (inactive)
CC1(C)OCC(C2CCC3(C)C4=CCC5C(C)(C)C(O)CCC5(C)C4CCC23C)CC(O)C1O (configuration not stated)	13.4 µM (inactive)	16.5 µM (inactive)	14.7 µM (inactive)	16.2 µM (inactive)	19.9 µM (inactive)	16.9 µM (inactive)	17.9 µM (inactive)	17 µM (inactive)	14.1 µM (inactive)	19.1 µM (inactive)	6.75 µM (inactive)	17.3 µM (inactive)	18.3 µM (inactive)	14.8 µM (inactive)		8.61 µM (inactive)	16.4 µM (inactive)	14.6 µM (inactive)	14.5 µM (inactive)
NCCN(CCN(C(=O)Nc1ccccc1)c1ccccc1)C(=O)Nc1ccccc1	24.9 µM (inactive)	30.6 µM (inactive)	18.2 µM (inactive)	17.4 µM (inactive)	19.2 µM (inactive)	21.3 µM (inactive)	20.3 µM (inactive)	17.4 µM (inactive)		19 µM (inactive)	27.5 µM (inactive)	19 µM (inactive)	20 µM (inactive)	28.6 µM (inactive)	27.6 µM (inactive)	20.7 µM (inactive)			16.6 µM (inactive)
COc1cc(S(=O)(=O)Nc2nc(-c3ccc(N4C(=O)CSC4c4cccs4)cc3)cs2)ccc1Cl (configuration not stated)	81.1 µM (inactive)	> 100 µM (inactive)	> 100 µM (inactive)	36.6 µM (inactive)	97.1 µM (inactive)	> 100 µM (inactive)	43.4 µM (inactive)	> 100 µM (inactive)	31.3 µM (inactive)	> 100 µM (inactive)		> 100 µM (inactive)	> 100 µM (inactive)	> 100 µM (inactive)	28.9 µM (inactive)	36.8 µM (inactive)	> 100 µM (inactive)	33.7 µM (inactive)	83.6 µM (inactive)
COc1cc(C2CC(C)(N3CCOCC3)Oc3cc4c(cc32)OCO4)cc(OC)c1OC (configuration not stated)	0.157 µM (active)	2.14 µM (inactive)	0.167 µM (active)	2.67 µM (inactive)	0.191 µM (active)	0.421 µM (active)	0.0452 µM (active)	0.156 µM (active)	0.275 µM (active)	> 100 µM (inactive)	0.0263 µM (active)		0.482 µM (active)	0.589 µM (active)	0.206 µM (active)		< 0.01 µM (active)	0.207 µM (active)	0.139 µM (active)
CCOC(=O)/C=C(\C(=O)OCC)n1cc(Cl)c(=O)n(CC(=O)OCC)c1=O	1.73 µM (inactive)	19.9 µM (inactive)	17 µM (inactive)	1.85 µM (inactive)	23.7 µM (inactive)	3.4 µM (inactive)	11.3 µM (inactive)	23.4 µM (inactive)	15.2 µM (inactive)	18.1 µM (inactive)	1.74 µM (inactive)	16.7 µM (inactive)	19.5 µM (inactive)	18.8 µM (inactive)		1.66 µM (inactive)	16.9 µM (inactive)	2.82 µM (inactive)	10.9 µM (inactive)
